Results taken from article PMC6428247, “Potent inhibitors of equine steroid isomerase EcaGST A3-3” (PLoS ONE, 2019).
Several values for one entry are separate records, joined by “and”; a condition that tells them apart may be missing. Equal values may be shown once. Read-outs that look alike come from different tables or passages of the source.

Assays:
[1] = target: T1, HsaGST M2-2 (Homo sapiens, UniProt P28161); test: Inhibition of HsaGST M2-2 CDNB activity; assay type: biochemical
T1 construct: made in house
T1 sequence (P28161 1-218): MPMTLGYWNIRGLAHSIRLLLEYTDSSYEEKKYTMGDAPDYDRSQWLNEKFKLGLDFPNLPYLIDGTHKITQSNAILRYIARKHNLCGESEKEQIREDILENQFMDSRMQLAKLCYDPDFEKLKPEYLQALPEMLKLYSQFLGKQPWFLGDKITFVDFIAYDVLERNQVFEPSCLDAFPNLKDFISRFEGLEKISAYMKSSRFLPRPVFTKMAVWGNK
Method: (§1) EcaGST A3-3 [10], HsaGST A3-3 [12] and HsaGST M2-2 [13] were cloned, expressed and purified as described previously. Protein concentration was determined by means of the Bradford assay.
(§2) The conjugation of GSH with the electrophilic substrate CDNB was used as a biochemical assay for general activity measurements. Screening of the US Drug library for inhibition was done in triplicates in 96-well plates in a Thermo Scientific Multiskan GO spectrophotometer. The conjugation activity at 30°C was monitored at 340 nm for 1 min in 0.1 M sodium phosphate buffer at pH 6.5 and 10 μM inhibitor concentration in a final volume of 300 μL. Initial concentrations of GSH and CDNB were 1 mM.
(§3) For understanding the effects of pharmacological interventions based on GST inhibitors, it is important to know the selectivity among the numerous GSTs. […] All values were determined with CDNB, which is a common substrate for all the enzymes.

[2] = tested on: HsaGST S1-1; parameters: method as in PMID 25603235; details: 1 mM GSH, 1 mM CDNB, pH 6.5, 30°C, cited from earlier work; for Inhibition (%) of HsaGST S1-1: 10 μM inhibitor; for IC50: CDNB activity
[3] = target: T2, EcaGST A3-3 (Equus caballus, UniProt M9ZT87); test: Inhibition of EcaGST A3-3 steroid double-bond isomerase activity with Δ^5-AD; assay type: biochemical, Equus ferus caballus
[4] = tested on: HsaGST P1-1; parameters: method as in PMID 23769903; details: 1 mM GSH, 1 mM CDNB, pH 6.5, 30°C, cited from earlier work; for Inhibition (%) of HsaGST P1-1: 3.3 μM inhibitor; for IC50: CDNB activity
[5] = target: T3, HsaGST A3-3 (Homo sapiens, UniProt Q16772); parameters: method as in PMID 23769903; details: CDNB activity, 1 mM GSH, 1 mM CDNB, pH 6.5, 30°C; read-out: IC50 HsaGST A3-3 (published); cited from earlier work
T3 construct: made in house
T3 sequence (Q16772 1-222): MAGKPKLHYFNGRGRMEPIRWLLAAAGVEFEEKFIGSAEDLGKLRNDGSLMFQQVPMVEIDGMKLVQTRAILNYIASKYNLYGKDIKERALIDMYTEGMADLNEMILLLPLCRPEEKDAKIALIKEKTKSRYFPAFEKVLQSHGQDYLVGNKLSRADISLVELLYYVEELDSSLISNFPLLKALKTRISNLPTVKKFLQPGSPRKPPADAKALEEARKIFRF

[6] = target: T3, HsaGST A3-3; test: Inhibition of HsaGST A3-3 CDNB activity; assay type: biochemical; details: for Inhibition (%) of HsaGST A3-3: 10 μM inhibitor
Method: as §1, §2, §3

[7] = target: T2, EcaGST A3-3; test: Inhibition of EcaGST A3-3 activity, GSH conjugation with CDNB; assay type: biochemical, Equus ferus caballus; details: for Inhibition (%) of EcaGST A3-3: 10 μM inhibitor, sodium phosphate pH 6.5, 30°C; for inhibition at 10 µM: pH 6.5, read-out: Inhibition (%) of EcaGST A3-3, 10 μM inhibitor, 1 mM GSH, 1 mM CDNB, sodium phosphate pH 6.5, 30°C
Method: The final solvent concentration in the reaction system was kept at 5% (v/v) as a maximum.
as §2
Assay conditions for inhibition measurements of enzyme activity with CDNB were the following: EcaGST A3-3 15 nM, initial concentrations of GSH and CDNB 1 mM, inhibitor concentrations varying from 0.029 μM to 15 μM, in 100 mM Na2HPO4/NaH2PO4 at pH 6.5.
The reactions were followed spectrophotometrically for 1 min at 30°C using a Shimadzu UV-2501 PC spectrophotometer (Shimadzu Inc.). All experiments included triplicate measurements in each data point.
The equation for competitive inhibition fitted by non-linear regression was v=Vmax[S]/KM(1+[I]/Ki)+[S] where [S] is the substrate concentrations and [I] is the inhibitor concentration.

[8] = substrate: CC12CCC3C(CC=C4CC(=O)CCC43C)C1CCC2=O; test: purified protein, by the assay type; details: other: 1 mM GSH, fitted with and without anthralin; 30.0 °C
[9] = 10 μM inhibitor, 1 mM GSH, 1 mM CDNB, pH 6.5, 30°C, read-out: Inhibition (%) of HsaGST M2-2
[10] = pH 6.5, 10 μM inhibitor, 1 mM GSH, 1 mM CDNB, pH 6.5, 30°C, read-out: Inhibition (%) of HsaGST A3-3
[11] = 1 mM CDNB, 1 mM GSH, 100 mM sodium phosphate pH 6.5, 30°C, read-out: IC50 EcaGST A3-3, substrate CDNB
[12] = 10 μM inhibitor, 1 mM GSH, 1 mM CDNB, pH 6.5, 30°C
[13] = 0.1 mM Δ^5-AD, 1 mM GSH, 25 mM sodium phosphate pH 8.0, 30°C
[14] = 1 mM GSH, 1 mM CDNB, pH 6.5, 30°C

Molecule: Oc1c(Cl)cc(Cl)cc1Sc1cc(Cl)cc(Cl)c1O [Bithionate sodium]
- inhibition at 10 µM [1, 9]: 73%
- Inhibition (%) of HsaGST S1-1 [2]: 47%
- IC50 [2]: 12000 nM
- IC50 [3]: 1600 ± 310 nM
- Inhibition (%) of HsaGST P1-1 [4]: 10%
- IC50 [5]: 700 nM
- inhibition at 10 µM [6, 10]: 47%
- Inhibition (%) of EcaGST A3-3 ([7]; 1 mM GSH, 1 mM CDNB): 64 ± 22%
- IC50 [7, 11]: 1900 ± 520 nM

Molecule: C=C(CC)C(=O)c1ccc(OCC(=O)O)c(Cl)c1Cl [Ethacrynic acid]
- Inhibition (%) of HsaGST M2-2 [1, 12]: low or negligible effects
- inhibition at 10 µM [1, 9]: 0%
- Inhibition (%) of HsaGST S1-1 [2]: 32%
- Inhibition (%) of HsaGST S1-1 ([2]; listed as ethacrynic acid): low or negligible effects
- IC50 [2]: 44000 nM
- IC50 [3]: 250 ± 100 nM
- IC50 EcaGST A3-3, substrate Δ^5-AD [3, 13]: submicromolar range
- Hill coefficient, Δ^5-AD inhibition ([3]; dose-response curve, substrate Δ^5-AD, mean ± SD): 1.0
- Inhibition (%) of HsaGST P1-1 [4]: 25%
- Inhibition (%) of HsaGST P1-1 ([4]; listed as ethacrynic acid): low or negligible effects
- IC50 [4]: 4900 nM
- IC50 [5]: 400 nM
- Inhibition (%) of HsaGST A3-3 [6, 14]: 94%
- inhibition at 10 µM [6, 10]: 94 to 100%
- IC50 [7]: 180 ± 67 nM
- Inhibition (%) of EcaGST A3-3 ([7]; 1 mM GSH, 1 mM CDNB): 100%
- Inhibition modality, substrate CDNB ([7]; CDNB varied, 1 mM GSH): Competitive
- Ki ([7]; Ki, EcaGST A3-3, substrate CDNB, CDNB varied, 1 mM GSH, 0.25 μM inhibitor): 140 nM and 141 nM
- Hill coefficient, CDNB inhibition ([7]; dose-response curve, substrate CDNB, mean ± SD): 2.5±0.21
- inhibition at 10 µM [7]: 94 to 100%

Molecule: Oc1c(Cl)cc(Cl)c(Cl)c1Cc1c(O)c(Cl)cc(Cl)c1Cl [Hexachlorophene]
- IC50 [1]: 1500 nM
- inhibition at 10 µM ([1]; pH 6.5, read-out: Inhibition (%) of HsaGST M2-2): 98%
- Inhibition (%) of HsaGST S1-1 [2]: 61%
- IC50 [2]: 8900 nM
- IC50 [3]: 440 ± 220 nM
- Inhibition (%) of HsaGST P1-1 [4]: 34%
- IC50 [4]: 9700 nM
- IC50 [5]: 160 nM
- inhibition at 10 µM ([6]; pH 6.5, read-out: Inhibition (%) of HsaGST A3-3): 89%
- IC50 [7]: 320 ± 36 nM
- inhibition at 10 µM [7]: 96 ± 1.1%

Molecule: O=C([O-])c1ccccc1-c1c2cc(Br)c(=O)cc-2oc2[c]([Hg+])c([O-])c(Br)cc12.[Na+].[Na+].[OH-] [Merbromin]
- Inhibition (%) of HsaGST M2-2 [1, 12]: 85%
- IC50 ([1]; CDNB activity, 1 mM GSH, 1 mM CDNB, pH 6.5, 30°C, read-out: IC50 HsaGST M2-2): 4900 nM
- Inhibition (%) of HsaGST S1-1 [2]: 85%
- IC50 [2]: 3300 nM
- IC50 ([3]; read-out: IC50 EcaGST A3-3, substrate Δ^5-AD, 0.1 mM Δ^5-AD, 1 mM GSH, 25 mM sodium phosphate pH 8.0, 30°C): 2500 ± 480 nM
- Inhibition (%) of HsaGST P1-1 [4]: 44%
- IC50 [4]: 3100 nM
- IC50 [5]: 660 nM
- Inhibition (%) of HsaGST A3-3 [6, 14]: 98%
- Inhibition (%) of EcaGST A3-3 ([7]; 1 mM GSH, 1 mM CDNB): 95 ± 18%
- IC50 [7, 11]: 2600 ± 630 nM

Molecule: Chlorophyllide Cu-complex Na salt
- Inhibition (%) of HsaGST M2-2 [1, 12]: 100%
- Inhibition (%) of HsaGST S1-1 [2]: 100%
- IC50 [2]: 1700 nM
- IC50 EcaGST A3-3, substrate Δ^5-AD [3, 13]: Anomalous curve
- Inhibition (%) of HsaGST P1-1 [4]: 51%
- IC50 [4]: 2300 nM
- IC50 [5]: 330 nM
- Inhibition (%) of HsaGST A3-3 [6, 14]: 84%
- Inhibition (%) of EcaGST A3-3 ([7]; 1 mM GSH, 1 mM CDNB): 98 ±2.2%
- IC50 [7, 11]: 2100 ± 270 nM

B1: EcaGST A3-3 (Equus caballus) (protein)
chain: MAVKPMLHYFNGRGRMEPIRWLLAAAGVEFEETFIDTPEDFEKLKNDGSLMFQQVPMVEIDGMKLVQSRAILNYVAAKHNLYGKDIKERALIDMYIEGVADLNEMILLLPITPPAEKDAKIMLIKDRTTNRYLPAFEKVLKSHGEDYLVGNRLSRADIHLVELLYLVEELDPSLLTNFPLLKALKARISNLPTVKKFLQPGGARKPPGDEKSVEKSRKIFKF
- Km [8]: 10.8 ± 0.46 µM
